Laboratory results published in US9410125B2, “Medium for mammalian somatic cells and additive therefor” (FUJIREBIO INC., priority 2007, dated 2016).

Test system: human bone marrow-derived mesenchymal stem cells (hMSCs)
Experiment: Adipogenic differentiation of hMSCs (Oil Red O staining)
Format: cell-based
Details: Example 2, differentiation into adipocytes and osteocytes
Procedure: Cells maintained for several passages using the conventional medium in (2-2) and 1% S-3, 1% FCS were transferred to wells in a 96-well plate each containing 0.1 mL of an adipocyte differentiation medium (DMEM, 10% FCS, 500 μM isobutylmethylxanthine (IBMX), 1 μM dexamethasone, 1 μM insulin, 1 μM Rosiglitazone) at a cell density of 20,000 cells/cm2, and cultured at 37° C. under 5% CO2 for 14 days, to induce differentiation into adipocytes. differentiated cells were confirmed by Oil Red O staining.
Cells maintained for several passages using conventional medium A and serum-free growth medium A were transferred to wells in a 48-well plate each containing 0.3 mL of an adipocyte differentiation medium (DMEM, 10% FCS, 500 μM IBMX, 1 μM dexamethasone, 1 μM insulin, 1 μM Rosiglitazone) at a cell density of 30,000 cells/cm2, and cultured at 37° C. under 5% CO2 for 14 days, to induce differentiation into adipocytes. differentiated cells were confirmed by Oil Red O staining. […]

CCCCCCCCCCCCC/C=C/[C@@H](O)[C@@H](N)COP(=O)(O)O [S1P, sphingosine-1-phosphate]
tendency in differentiation when used instead of LPA as the Edg ligand: did not change
